In data set [1] the test system is GM 15850 (lymphoblastoid cells line) cells. Description: In-cell deacetylase inhibition assay (DAC assay). It is filed as cell-based. The conditions noted are these: Homo sapiens, GM15850; GM 15850 cells, 4 h incubation. As for the experimental part:
GM 15850 (lymphoblastoid cells line) cells were seeded in 96-well plates at an appropriate density (100,000 cells/well) in 90 μL, RPMI1640 medium containing 10% v/v fetal bovine serum (FBS), 1% v/v penicillin/streptomycin, and 1% v/v L-glutamine. Compound dilutions were made in 100% DMSO followed by parallel dilution in media with 2% DMSO. 10 μl of the compound dilutions were added to the cells to achieve the desired concentrations. The final concentration of DMSO in each well was 0.2%. The cells were incubated for 4 h at 37° C. with 5% CO2. After incubation, the cells were centrifuged down and the supernatant was removed. The cell pellets were washed with 100 μL, phosphate-buffered saline (PBS) and then lysed with 45 μL, lysis buffer (HDAC assay buffer at pH 8.0 (25 mM Tris/HCl, 137 mM NaCl, 2.7 mM KCl, 1 mM MgCl2)+1% v/v Igepal CA-630). To initiate the reaction, the HDAC substrate KI-104 (Enzo Life Sciences, Farmingdale, N.Y.) was added to a final concentration of 50 μM. The reaction was stopped after 30 min incubation by addition of 50 μL, developer (6 mg/mL trypsin in HDAC assay buffer). The reaction was allowed to develop for 30 min at room temperature and the fluorescence signal was detected using a fluorometer (Spectramax M2, Molecular Devices, Sunnyvale, Calif.) with excitation and emission wavelengths of 360 nm and 470 nm respectively. The data was fitted to a sigmoidal dose response equation with variable slope in GraphPad Prism 5.0 (GraphPad Software, La Jolla, Calif.) to determine IC50. Bottom and top of the curve were fixed to the average fluorescence response of control wells with no cells and cells but no compound respectively. IC50's are reported in Table 5, where A stands for IC50 less than 1 μM, B between 1 and 5 μM, C from 5 to 10 μM, D from 10 to 20 μM, and IA for IC50 above 20 μM.

Data set [2] in a line: Hepatocyte stability and metabolism (parent remaining, acid and OPD formation). It is filed as in vitro ADME. Particulars: human hepatocytes; for % left 6H Hum hep: 5 μM; for OPD: OPD formation by LC-MS/MS after phenylglyoxal derivatisation. The procedure: The inventors have found, however, that formula (I) compound metabolites are substantially free of OPD when formula (I) compounds are subjected to conditions intended to mimic in vivo metabolism pathways. As used herein, the term “substantially free of OPD” means that OPD was not detected by LC-MS/MS after (i) incubating a formula (I) compound with human, monkey, dog and rat hepatocytes and (ii) treating the metabolite milieu with an acidic solution of phenylglyoxal in an organic solvent (this addition leads to quantitative formation of 2-phenylquinoxaline, which can be easily quantified with a low lower limit of quantitation (LLOQ)). See the Examples section.
To assess the stability and metabolism of RGFP compounds and to quantify the metabolites in hepatocytes. This assay was designed to evaluate the metabolism of RGFP compounds, following their incubation with human, monkey, dog and rat hepatocytes by monitoring either parent drug disappearance or metabolite appearance using LC-MS/MS. The results are shown in Table 5 ((% Left in Hep: IA<10%, 50%<A, 50%>B>30%, 30%>C>10%, ND: not determined).
Procedure: Turn on the water-bath heater to 37° C. Take out the KHB buffer and make sure it is at room temp before use. Prepare 2.5 mM concentration of RGFP compound in DMSO stock. Add 10 μL of above DMSO stock to 2490 μL KHB buffer; final concentration of RGFP compound will be 10 μM. Pre-warm 45 ml InVitro HT Medium to 37° C. in a sterile 50 ml conical tube. Add 1.0 mL Torpedo Antibiotic Mix per 45 mL InVitro HT medium. Transfer 13 mL of warm HT medium with Antibiotic Mix into a 15 mL conical tube. Carefully remove the hepatocyte vials from liquid nitrogen (liquid phase). Immediately immerse the vial into a 37° C. water bath. Shake gently until the ice melts entirely. […] Immediately empty contents of the vial into 13 ml of pre-warmed InVitro HT Medium with antibiotics. Rinse the vial with the HT media just transferred the hepatocytes to, in order to ensure complete transfer. Centrifuge the cell suspension at 600 RPM for 5 minutes at room temperature. […] Add 1.0 ml of KHB (at room temperature) buffer to the tube of hepatocyte pellet. Loosen the cell pellet by gently swirling the centrifuge tube. Transfer 100 μL of above solution to a different tube and add 900 μL of KHB buffer to count the cells. Determine the total cell count and the number of viable cells using the Trypan Blue exclusion method. Once the cell count is obtained, multiply the number by 10 (attributing to the dilution factor). Add required volume of KHB buffer to the tube containing hepatocytes such that the final count will be 2 million cells/mL. Dispense 50 μL of 2 million cells/ml to a 96 well plate and then add 50 μl of DMSO stock to respective wells (such that, the concentration of RGFP compounds is 5 μM and number of cells are 100000 in each well). Place the plates on a shaker in a 37° C. incubator with 5% CO2. Separate plates for each time point are advisable (Time points: 0 h, 1 h, 2 h, and 6 h). After each time point, add 100 μL of quenching solution. Quenching solution is an acetonitrile solution containing RGFP531 (10 μM) internal standard, 0.1% formic acid and phenylglyoxol (400 μM). The formic acid and phenylglyoxal is used for the identification and quantification of OPD as mentioned above. Pipette up and down a few times to ensure a complete stop of reaction. Transfer all the solution into a 1.5 ml tube, vortex thoroughly, and centrifuge at 14000 RPM at 4° C. for 5 minutes to precipitate cell debris. Transfer the 150 μL of supernatant to vials for analysis on LC-MS/MS.
LC-MS/MS parameters for RGFP compounds and metabolites including OPD: LC-MS/MS Parameters for API 2000 QTrap: System: HPLC 1100; Column: Gemini C18, 5 μM 4.6×50 mm; Column Temp: Ambient; MS: API 2000 QTrap (MI mode); Mobile Phase A: HPLC water with 0.05% Formic Acid; Mobile Phase B: Acetonitrile with 0.05% Formic Acid.

The source of these data is patent US10428028B2, “HDAC inhibitors” (BIOMARIN PHARMACEUTICAL INC., priority 2013, dated 2019).

Structures are written as SMILES.

What is called IC50 is the concentration that inhibits the measured activity by half. A low value points to inhibition by little substance. In the case of `Nc1ccccc1NC(=O)c1ccc2c(cnn2Cc2cccnc2)c1` [Compound A1], in data set [1], the IC50 was less than 1000 nM. In addition, in data set [2], the “% left 6H Hum hep” value was “A (50%<A)” and the OPD result is given as “No OPD”.
Taken in the same sequence, the figures for `Nc1ccccc1NC(=O)c1ccc2c(cnn2Cc2ccccc2)c1` [Compound A2] were less than 1000 nM, “B (50%>B>30%)” and “No OPD”.
On to `Cn1cc(Cn2ncc3cc(C(=O)Nc4ccccc4N)ccc32)cn1` [Compound A3], for which the IC50 in data set [1] was less than 1000 nM. For the same compound, in data set [2], the “% left 6H Hum hep” value was “A (50%<A)” and the OPD result was “No OPD”.
In the case of `Nc1ccccc1NC(=O)c1ccc2c(cnn2Cc2cncc(F)c2)c1` [Compound A4, N-(2-aminophenyl)-1-((5-fluoropyridin-3-yl)methyl)-1H-indazole-5-carboxamide], the IC50 in data set [1] is less than 1000 nM. Moreover, in data set [2], the “% left 6H Hum hep” value was “A (50%<A)” and the OPD result is on record as “No OPD”.
On the same counts, the results for `Cc1ccc(Cn2ncc3cc(C(=O)Nc4ccccc4N)ccc32)c(C)n1` [Compound A5] are less than 1000 nM, “B (50%>B>30%)” and “No OPD”.
`Nc1cc(F)ccc1NC(=O)c1ccc2c(cnn2Cc2cccnc2)c1` [Compound A6] yielded a concentration for half-maximal inhibition (IC50) in data set [1] of 1000 to 5000 nM. Besides, in data set [2], the “% left 6H Hum hep” value is “B (50%>B>30%)” and the OPD result is reported as “No OPD”.
`Nc1cc(F)ccc1NC(=O)c1ccc2c(cnn2Cc2cncc(F)c2)c1` [Compound A7] yielded an IC50 in data set [1] of 1000 to 5000 nM. Further, in data set [2], the “% left 6H Hum hep” value was “B (50%>B>30%)” and the OPD result was “No OPD”.
As for `Cc1ccc(Cn2ncc3cc(C(=O)Nc4ccc(F)cc4N)ccc32)c(C)n1` [Compound A8], the IC50 in data set [1] lay within 1000 to 5000 nM. Also, in data set [2], the “% left 6H Hum hep” value is “A (50%<A)” and the OPD entry is “No OPD”.
`Nc1ccccc1NC(=O)c1ccc2c(cnn2Cc2ccc(F)c(F)c2)c1` [Compound A9]: in data set [2], the “% left 6H Hum hep” value is “B (50%>B>30%)” and the OPD entry is “No OPD”.
In data set [1], `Nc1cc(F)ccc1NC(=O)c1ccc2c(cnn2CC2CC2)c1` [Compound A12] returned an IC50 greater than 20000 nM. Also, in data set [2], the “% left 6H Hum hep” value was “C (30%>C>10%)” and the OPD result was “No OPD”.
The compound `Nc1ccccc1NC(=O)c1ccc2nn(Cc3cccnc3)cc2c1` [Compound A13] came in with an IC50 in data set [1] of less than 1000 nM. In addition, in data set [2], the “% left 6H Hum hep” value is “A (50%<A)” and the OPD result was “No OPD”.
`Nc1ccccc1NC(=O)c1ccc2nn(Cc3cncc(F)c3)cc2c1` [Compound A14, N-(2-aminophenyl)-2-((5-fluoropyridin-3-yl)methyl)-2H-indazole-5-carboxamide]: in data set [1], the IC50 was less than 1000 nM. Moreover, in data set [2], the “% left 6H Hum hep” value is “A (50%<A)” and the OPD result was “No OPD”.
With `Cc1ccc(Cn2cc3cc(C(=O)Nc4ccccc4N)ccc3n2)c(C)n1` [Compound A15], in data set [1], the IC50 is less than 1000 nM. Besides, in data set [2], the “% left 6H Hum hep” value was “A (50%<A)” and the OPD entry is “No OPD”.
